Holding throughout (assay): ITC direct binding
Design in all cases: species or system A. thaliana

Test [1] addresses T1, SCRM (Arabidopsis thaliana, UniProt Q9LSE2).
T1 construct: SCRM (1-494); made in house; host or cells: E. coli BL21
T1 sequence (Q9LSE2 1-494): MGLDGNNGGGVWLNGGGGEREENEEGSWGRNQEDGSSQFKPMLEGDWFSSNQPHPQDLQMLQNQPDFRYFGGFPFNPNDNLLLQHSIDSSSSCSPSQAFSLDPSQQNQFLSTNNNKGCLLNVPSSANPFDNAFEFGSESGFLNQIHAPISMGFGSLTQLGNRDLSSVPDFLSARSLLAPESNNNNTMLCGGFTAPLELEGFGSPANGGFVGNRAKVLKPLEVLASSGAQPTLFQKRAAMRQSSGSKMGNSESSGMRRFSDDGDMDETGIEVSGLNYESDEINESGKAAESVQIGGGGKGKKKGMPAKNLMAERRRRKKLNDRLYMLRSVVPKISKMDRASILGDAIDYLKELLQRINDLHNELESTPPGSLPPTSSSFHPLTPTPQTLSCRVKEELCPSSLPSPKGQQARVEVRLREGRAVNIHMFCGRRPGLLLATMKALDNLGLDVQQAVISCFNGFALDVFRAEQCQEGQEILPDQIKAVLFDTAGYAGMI
From the text: (§1) A. thaliana SCRM (1-494), ΔNSPCH (98-364), MUTE (1-202), ΔNFAMA (190-414), MUTEΔC (1-114), MUTER133A_R134A, MUTEE162A_E163A, MUTER133A_R134A_E162A_E163A, SCRM-ACTL (405-494), MUTE-ACTL (114-202), SPCH-ACTL (285-364), FAMA-ACTL (306-414), MUTE_ACTLR133A_R134A, MUTE_ACTLE162A_E163A, MUTE_ACTLR133A_R134A_E162A_E163A were cloned into pGEX-4T-1 vector with an N-terminal GST tag and a thrombin cleavage sequence. For protein expression, the constructs were transformed into E. coli strain BL21. For each transformant, a single colony was selected and incubated in 10 ml LB liquid media. The overnight-incubated E. coli suspensions were transferred to 1 L LB medium and incubated at 37 °C for around 2 h until the OD600 reached 0.4–0.6. The isopropyl β-D-1-thiogalactopyranoside ([…] of final concentration) was added to the cultures and the strains were incubated at 22 °C for a further 18 h. GST-fused proteins were purified using glutathione agarose resin. The soluble portion of the cell lysate was loaded onto a GST-Sepharose column. Nonspecifically bound proteins were removed by washing the column with 20 mM Tris pH 8.0, 200 mM NaCl. The bound GST-fused protein was eluted with 10 mm glutathione and 20 mM Tris pH 8.0, 200 mM NaCl. The GST-fused proteins were exchanged with phosphate-buffered saline buffer, and then the solution was treated with 50 μg of thrombin for 10–12 h at 16 ^οC. The GST portion of the protein was cleaved during thrombin digestion, and then the whole solution was reloaded onto the glutathione S-transferase column to obtain pure protein. The purified proteins were further purified by gel filtration on a Superdex-200 (GE) column using fast protein liquid chromatography and phosphate buffer (pH 7.2) as the eluent. The purity of the protein was checked by SDS-PAGE. For detailed lists of oligo DNA and plasmid information, see Supplementary Tables 5, 6, respectively.
(§2) Binding of the small molecule Stomidazolone (3) to SCRM, MUTE, SPCH, FAMA, MUTEΔC, MUTE_ACTL, SCRM_ACTL, SPCH_ACTL and FAMA_ACTL, MUTER133A_R134A, MUTEE162A_E163A, MUTER133A_R134A_E162A_E163A, as well as SCRM binding to MUTE in the presence and absence of Stomidazolone (3) / AYSJ1059 (5) /AYSJ1061 (6) was characterized at 30 °C using a Malvern PEAQ-ITC microcalorimeter. All the protein samples were dialyzed overnight using PBS buffer containing 2% DMSO and 1 mM DTT. Stomidazolone was dissolved in PBS buffer containing 2% DMSO and 1 mM DTT. Titrations were performed by injecting 1 × 0.5-μL and 12 × 3-μL or 1 × 0.75-μL and 18 × 2-μL or 1 × 0.2-μL and 25 × 1.3-μL aliquots of 1 mM Stomidazolone / AYSJ1059 / AYSJ1061 to 5-30 μM of protein in PBS buffer pH 7.4, containing 2% DMSO and 1 mM DTT. All titrations were carried out at least twice. The raw data were corrected using buffer and protein controls and analyzed using the software supplied by the manufacturer. See Supplementary Table 3 for details.

Test [2] has as its target T2, SCRM_ACTL (Arabidopsis thaliana, UniProt Q9LSE2).
T2 construct: SCRM-ACTL (405-494); GST (N, cleaved yes); made in house; host or cells: E. coli BL21
T2 sequence (Q9LSE2 405-494): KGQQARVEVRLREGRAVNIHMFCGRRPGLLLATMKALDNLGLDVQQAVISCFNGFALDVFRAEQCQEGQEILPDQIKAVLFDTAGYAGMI
Text: as §1, §2

In test [3] the target is T3, MUTE (Arabidopsis thaliana, UniProt Q9M8K6).
T3 construct: MUTE (1-202); made in house; host or cells: E. coli BL21
T3 sequence (Q9M8K6 whole entry): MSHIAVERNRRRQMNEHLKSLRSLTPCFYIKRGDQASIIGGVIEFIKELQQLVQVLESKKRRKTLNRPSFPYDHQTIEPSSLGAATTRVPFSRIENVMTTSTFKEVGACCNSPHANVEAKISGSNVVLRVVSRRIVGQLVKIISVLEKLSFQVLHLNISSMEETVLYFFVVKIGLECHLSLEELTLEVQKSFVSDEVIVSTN
Text: as §1, §2

Test [4] deals with T4, FAMA (Arabidopsis thaliana, UniProt Q56YJ8).
T4 construct: ΔNFAMA (190-414); made in house; host or cells: E. coli BL21
T4 sequence (Q56YJ8 190-414): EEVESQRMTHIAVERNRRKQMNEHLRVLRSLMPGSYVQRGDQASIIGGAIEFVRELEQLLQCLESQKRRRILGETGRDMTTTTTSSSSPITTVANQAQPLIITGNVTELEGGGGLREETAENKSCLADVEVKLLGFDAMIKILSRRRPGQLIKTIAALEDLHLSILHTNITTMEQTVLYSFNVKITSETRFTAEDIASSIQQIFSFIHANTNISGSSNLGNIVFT
Text: as §1, §2

Test [5] addresses T5, MUTE_ACTLR133A_R134A (Arabidopsis thaliana, UniProt Q9M8K6, R133A/R134A).
T5 construct: MUTE-ACTL (114-202); made in house; host or cells: E. coli BL21
Conditions: MUTE_ACTL R133A_R134A.
Text: as §1, §2

Test [6] has as its target T6, SPCH (Arabidopsis thaliana, UniProt Q700C7).
T6 construct: ΔNSPCH (98-364); made in house; host or cells: E. coli BL21
Text: as §1, §2

Each structure is given as a SMILES string.

In general, Kd refers to the free concentration of one partner at which half of the binding sites on the other are occupied at equilibrium, for simple one-to-one binding. Higher therefore signals lower affinity.

T6 sequence (Q700C7 98-364): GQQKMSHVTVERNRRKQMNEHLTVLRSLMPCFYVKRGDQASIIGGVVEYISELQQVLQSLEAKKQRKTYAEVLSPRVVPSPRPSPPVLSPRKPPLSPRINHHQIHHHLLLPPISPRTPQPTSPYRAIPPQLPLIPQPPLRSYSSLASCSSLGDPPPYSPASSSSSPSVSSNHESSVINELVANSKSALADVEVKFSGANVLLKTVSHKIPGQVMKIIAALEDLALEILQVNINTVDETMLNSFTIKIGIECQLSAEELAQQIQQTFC
T5 sequence (Q9M8K6 114-202 R133A/R134A): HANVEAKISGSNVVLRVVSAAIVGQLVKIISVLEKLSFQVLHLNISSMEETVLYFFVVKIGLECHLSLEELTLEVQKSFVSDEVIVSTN

For `O=C1C(c2ccccc2)=NC(NS(=O)(=O)c2ccccc2)(c2ccccc2)N1S(=O)(=O)c1ccccc1` (stereo not drawn) [Stomidazolone], the “-T△S” value is 4.1 ± 0.2 in test [1]; 6.1 ± 0.2 in test [2]; 17.3 ± 0.4 in test [3]; 2.4 ± 0.3 in test [4]; 5.1 ± 0.2 in test [5]; 3.6 ± 0.2 in test [6]. The Kd in test [1] came out at 71.5 ± 5.1 µM; in test [2] it was 78.4 ± 5.1 µM; in test [3], 7.8 ± 1.1 µM; in test [4], 80.4 ± 4.1 µM; in test [5], 127 ± 28.5 µM; in test [6], 79.6 ± 3.6 µM. For the same compound, the “△G” value in test [1] is on record as -4.8 ± 0.2; in test [2], -3.2 ± 0.2; in test [3], -3.3 ± 0.2; in test [4], -1.8 ± 0.2; in test [5] it was -3.8 ± 0.2; in test [6], -2.6 ± 0.2. The “△H” value in test [1] is on record as -8.9 ± 0.2; in test [2], -9.3 ± 0.4; in test [3] it was -20.6 ± 0.4; in test [4], -4.2 ± 0.2; in test [5], -8.9 ± 0.4; in test [6] it was -6.2 ± 0.5.
